Experimental findings from patent US9533969B2, “Materials and method for inhibiting replication protein A and uses thereof” (Indiana University Research and Technology Corp., priority 2010, dated 2017) are described below.

Data set [1] has as its system H460 cells. Kind of data set: Combination index analysis with cisplatin or etoposide. The data set is classed as cell-based, human. The conditions noted are these: 48 hours. As for the experimental part: In addition to its essential role in DNA replication, RPA is required for the repair of bulky DNA adducts as well as DNA breaks induced by various types of exogenous and endogenous agents. […] In order to determine the effect of RPA inhibition on cellular sensitivity to cisplatin, the combination index (CI) (20) was measured. Referring now to FIG. 6. As illustrated in this experiment, compound TDLR-505 acts synergistically with both cisplatin and etoposide in H460 cells. H460 cells were treated with increasing fractions of the IC50 concentration of either cisplatin or etoposide with compound TDLR-505 for 48 hours. After treatment, cells were harvested and analyzed by annexin V/PI flow cytometry. Open circles indicate CI analysis of cisplatin with TDLR-505 and closed circles represent etoposide with TDLR-505. The combination index analysis was performed as previously described (20). The data are presented as the average±SD from (N=3). When cisplatin and compound TDLR-505 were used in combination, cell viability was decreased to a level that was greater than that induced by either agent alone, resulting in a synergy between the two compounds and CI of 0.4 at the highest fraction of cells affected. […] The ability of compound TDLR-505 to synergize with etoposide was also examined. Etoposide induces replication fork arrest and DNA damage response, both cellular processes that require RPA (21).

Data set [2] deals with H460 cells. As to the kind of experiment: H460 NSCLC mouse xenograft model. The data set is classed as in vivo, NOD/SCID mice. Conditions: oral dosing. The source says:
Mice that had been implanted with a human NSCLC tumor cells were subjected to a regime of oral dosing. The tumors were allowed to grow to 100 mm3 after which treatment with TDRL-505 or vehicle was commenced.

The test system of data set [3] is H460 NSCLC cells. Kind of data set: Cell cycle distribution by PI flow cytometry. The data set is classed as cell-based, human. As for the experimental part: H460 cells were analyzed for apoptosis using an Annexin V-FITC/Propidium iodide (PI) Vybrant Apoptosis Assay Kit (Invitrogen), according to manufacturer's instructions. Cells were plated at a density of 1×10^4 cells per cm^2 and allowed to adhere for 24 hours and then treated with compound TDLR-505 for 48 hours. Following plating and treatment of H460 cells as described above, adherent and non-adherent cells were collected, processed, and analyzed on a BD FACScan flow cytometer. Data was analyzed using WinMDI software (http://facs.scripps.edu/software.html). Cell cycle analysis was performed by PI staining Briefly, cells were plated and treated with compound collected and then washed twice with PBS-EDTA supplemented with 1% BSA. Cells were fixed in 70% EtOH at −20° C. while vortexing followed by incubation on ice for 30 minutes. […] Cells were analyzed on a Becton Dickinson FACScan flow cytometer. Cells were gated and analyzed on a histogram with events plotted against the FL2-A parameter. Cell cycle distribution was analyzed using ModFit software. […] Cells were harvested and analyzed for cell cycle distribution as described above.
Referring now to FIG. 5A. H460 NSCLC cells were treated with 0 and 75 μM of compound TDLR-505 for 48 hours and then analyzed for cell cycle distribution using flow cytometry. […] Cells were then harvested and analyzed for cell cycle distribution using flow cytometry. […]
A general note: A flow cytometer gives signals particle by particle.

Data set [4] deals with RPA p34. Kind of data set: Western blot of RPA p34 in H460 cells. The data set is classed as cell-based, human. Conditions: 100 μM, 6 hours, without or with 25 μM etoposide. As for the experimental part: H460 cells were plated and treated with either vehicle or 100 μM compound TDLR-505 in the presence or absence of 25 μM etoposide for 6 hours and then processed for western blot analysis using a RIPA lysis and extraction procedure. RPA was detected with an anti-RPA p34 antibody (Neomarkers) and goat anti-mouse-HRP secondary (Santa Cruz). Bands were visualized using chemiluminescence detection.
These cellular effects seen following treatment with compound TDLR-505 correlate with an inability of RPA to interact with DNA which could then result in numerous possibilities including degradation or redistribution of RPA within the cell. Indirect immunofluorescence was used to assess how inhibition of RPA binding influences cellular localization. Referring now to FIG. 4C, H460 cells were treated with 50 μM compound TDLR-505 or vehicle for 3 hours and analyzed for RPA expression and localization by indirect immunofluorescence using an Alexa Fluor594 secondary antibody (red). Slides were counter stained with DAPI (blue) and images merged. Magnification of the boxed cells is presented below the low magnification images. […] (FIG. 4C). […] Referring now to FIG. 4D, H460 cells were treated with vehicle or 100 μM compound TDLR-505 without or with etoposide (25 μM) as indicated in the figure. RPA expression was assessed via western blot analysis probing for the p34 subunit. […]
A general note: A western blot detects proteins with antibodies after separation by electrophoresis.

Data set [5] deals with RPA. As to the kind of experiment: Indirect immunofluorescence of RPA in H460 cells. The data set is classed as cell-based, human. The conditions noted are these: 50 μM, 3 hours. As for the experimental part:
H460 cells were plated on chamber slides (LabTek) as described above. Cells were then treated for 3 hours with either 50 μM of compound TDLR-505 or vehicle as indicated and following treatment, cells were fixed in 4% paraformaldehyde at 25° C. for 3 minutes followed by washing in 0.2% Triton X-100 for 2 minutes at 4° C. The slides were then blocked in 15% FBS in PBS for 1 hour at 25° C. and then incubated with anti-RPA 34 primary antibody (Neomarkers) at a dilution of 1:500 in 15% FBS for 1 hour. Slides were then washed 3×10 minutes with 15% FBS and then incubated with Alexa Fluor-594 goat-anti-mouse secondary antibody (Invitrogen) at a dilution of 1:300 for 1 hour. Slides were again washed and stained with 300 nM DAPI diluted in PBS-EDTA for five minutes. […] Slides were visualized and images analyzed and quantified using ImageJ software.
These cellular effects seen following treatment with compound TDLR-505 correlate with an inability of RPA to interact with DNA which could then result in numerous possibilities including degradation or redistribution of RPA within the cell. […] Referring now to FIG. 4C, H460 cells were treated with 50 μM compound TDLR-505 or vehicle for 3 hours and analyzed for RPA expression and localization by indirect immunofluorescence using an Alexa Fluor594 secondary antibody (red). […] RPA expression was assessed via western blot analysis probing for the p34 subunit. […]

For data set [6], the system named is A549 NSCLC cell line. As to the kind of experiment: Cytotoxicity in A549 cells. Conditions: data not shown. The data set is classed as cell-based.

Take `CCOc1ccc2cc(C3CC(c4ccc(Br)cc4)=NN3C(=O)CCC(=O)O)c(Cl)nc2c1` (centres unmarked) [TDRL-505]: the “interaction with cisplatin at lower fractions of cells affected (in words)” value in data set [1] (CI values greater than one) was “additive and then antagonistic”. The “interaction with etoposide (in words)” value in data set [1] (all fractions of cells affected) is reported as “synergistic activity”. For the same compound, the “combination index (CI) with cisplatin” value in data set [1] (highest fraction of cells affected) came out at 0.4. Further, in data set [2] (FIG. 7B), the “tumor growth in individual mice vs vehicle (in words)” value was “significant reduction in tumor growth”. Moreover, the “tumor growth vs vehicle control (in words)” value in data set [2] (group mean, FIG. 7A) is given as “reduction in tumor growth”. Moreover, the “cell cycle distribution, asynchronous culture (in words)” value in data set [3] (75 μM, 48 hours) was “increase in the proportion of cells in G1-phase”. For the same compound, the “cell cycle progression after release from nocodazole G2 arrest (in words)” value in data set [3] (100 μM, 4, 8 and 12 hours) is listed as “did not enter S-phase even 12 hours post release”. In addition, the “RPA expression (p34 western blot, in words)” value in data set [4] is “not degraded or reduced in expression”. The “intensity of RPA staining vs vehicle (in words)” value in data set [5] is “decrease in the intensity of RPA staining”. Further, the “cells with RPA staining intensity >70% of the maximum” value in data set [5] (vehicle 23%) is reported as 15%. Besides, the “cytotoxic effect in A549 cells (in words)” value in data set [6] is on record as “A similar result”.
